One assay concerns the target T1, human PI3Kδ enzyme (Homo sapiens, UniProt O00329).
T1 construct: purchased Millipore Corporation 14-604
The experiment in a line: PI3Kδ enzyme inhibitory activity (PI3-Kinase HTRF Assay kit). To be noted: human PI3Kδ 10 ng/well, ATP 30 μM, PIP2 10 μM, room temperature 30 minutes. Type of assay: biochemical. As for the experimental part: 1. PI3Kδ Enzyme Inhibitory Activity
For the experiment, a PI3-Kinase HTRF Assay kit (Millipore Corporation, Catalogue No. 33-016) and a human PI3Kδ enzyme (Millipore Corporation, Catalogue No. 14-604) were used. The measurement method was in accordance with the appended instructions. The overview thereof is as follows.
PI3Kδ (10 ng/well), phosphatidylinositol-4,5-bisphosphate (10 μM), ATP (30 μM), and the test compound were mixed in a 384-well plate (total 20 μL), and incubated at room temperature for 30 minutes. EDTA and biotinylated phosphatidylinositol-3,4,5-triphosphate were added thereto to stop the reaction. Thereafter, a Europium labeled anti-GST antibody, a GST bond GRP1 PH domain, and streptavidin-APC were added thereto, followed by incubation overnight. An HTRF ratio was measured using an HTRF plate reader. The IC50 value of the compound was calculated, taking the inhibition rate without addition of the enzyme as 100% and the inhibition rate without addition of the test compound as 0%, by means of a logistic method.
(§1) In the Table, Ex represents Example Compound No. as described later, PI3Kδ represents the IC50 value (nM) of a PI3Kδ enzyme inhibitory activity, and PI3Kα represents the IC50 value (nM) of a PI3Kα enzyme inhibitory activity.

Assay [1] has as its system Spleen cells (B cell proliferation). Briefly: Rat B cell proliferation inhibition test (anti-rat IgM, [3H]thymidine). Type of assay: cell-based. The note with it: anti-rat IgM 3 μg/well, 48 hours culture, [3H]thymidine uptake. Here is the method: 4. Rat B Cell Proliferation Inhibition Test
Spleen cells (1.0×10^5 cells/well) prepared from male LEW/CrlCrlj rats (Charles River Laboratories, Japan, Inc.), mouse F(ab′)2 fragment anti-rat IgM (3 μg/well, SouthernBiotech Associates, Inc., Catalogue No. 3082-14) and the test compound dissolved in DMSO (final DMSO concentration 0.1%) were mixed in a 96-well plate using a 10% FCS-containing RPMI-1640 culture medium (total 200 μL). They were cultured in a CO2 incubator for 48 hours and [^3H]thymidine (925 GBq/mmol, Moravek Biochemicals, Inc., Catalogue No. MT6038) was added thereto at 0.037 MBq/well at 4 hours before completion of culture. Cells were harvested in a GF/C glass filter using a cell harvester, and a radioactivity on the filter was measured using a liquid scintillation counter. The IC50 value of the compound was calculated, taking the dpm (disintegration per minute) without addition of IgM as an inhibition rate of 100% and the dpm without addition of the test compound as an inhibition rate of 0%, by a logistic method.

A further assay has as its target T2, Human PI3Kα (Homo sapiens, UniProt P42336).
T2 construct: purchased Millipore Corporation 14-602
The experiment in a line: PI3Kα enzyme inhibitory activity (Kinase-Glo Plus luminescence). The note with it: Human PI3Kα 12 ng/well, phosphatidylinositol 0.2 μg/well, 37° C. for 3 hours. Format: biochemical. Here is the method:
2. PI3Kα Enzyme Inhibitory Activity
Human PI3Kα (12 ng/well, Millipore Corporation, Catalogue No. 14-602), phosphatidylinositol (0.2 μg/well), and the test compound were mixed in a 384-well plate in a reaction buffer (50 mM Hepes, 10 mM NaCl, 10 mM MgCl2, 2 mM EGTA, 2 mM DTT, pH 7.3) (total 10 μl), and incubated at 37° C. for 3 hours. After the reaction, 10 μL of a Kinase-Glo Plus reagent (Promega, Catalogue No. V3772) was added thereto, and a luminescence was measured with a luminometer. The IC50 value of the compound was calculated, taking the inhibition rate without addition of the enzyme as 100% and the inhibition rate without addition of the test compound as 0%, by a logistic method.
as §1
(In general: Kinase-Glo measures the ATP left after a reaction by luminescence.)

T1 sequence (O00329 whole entry): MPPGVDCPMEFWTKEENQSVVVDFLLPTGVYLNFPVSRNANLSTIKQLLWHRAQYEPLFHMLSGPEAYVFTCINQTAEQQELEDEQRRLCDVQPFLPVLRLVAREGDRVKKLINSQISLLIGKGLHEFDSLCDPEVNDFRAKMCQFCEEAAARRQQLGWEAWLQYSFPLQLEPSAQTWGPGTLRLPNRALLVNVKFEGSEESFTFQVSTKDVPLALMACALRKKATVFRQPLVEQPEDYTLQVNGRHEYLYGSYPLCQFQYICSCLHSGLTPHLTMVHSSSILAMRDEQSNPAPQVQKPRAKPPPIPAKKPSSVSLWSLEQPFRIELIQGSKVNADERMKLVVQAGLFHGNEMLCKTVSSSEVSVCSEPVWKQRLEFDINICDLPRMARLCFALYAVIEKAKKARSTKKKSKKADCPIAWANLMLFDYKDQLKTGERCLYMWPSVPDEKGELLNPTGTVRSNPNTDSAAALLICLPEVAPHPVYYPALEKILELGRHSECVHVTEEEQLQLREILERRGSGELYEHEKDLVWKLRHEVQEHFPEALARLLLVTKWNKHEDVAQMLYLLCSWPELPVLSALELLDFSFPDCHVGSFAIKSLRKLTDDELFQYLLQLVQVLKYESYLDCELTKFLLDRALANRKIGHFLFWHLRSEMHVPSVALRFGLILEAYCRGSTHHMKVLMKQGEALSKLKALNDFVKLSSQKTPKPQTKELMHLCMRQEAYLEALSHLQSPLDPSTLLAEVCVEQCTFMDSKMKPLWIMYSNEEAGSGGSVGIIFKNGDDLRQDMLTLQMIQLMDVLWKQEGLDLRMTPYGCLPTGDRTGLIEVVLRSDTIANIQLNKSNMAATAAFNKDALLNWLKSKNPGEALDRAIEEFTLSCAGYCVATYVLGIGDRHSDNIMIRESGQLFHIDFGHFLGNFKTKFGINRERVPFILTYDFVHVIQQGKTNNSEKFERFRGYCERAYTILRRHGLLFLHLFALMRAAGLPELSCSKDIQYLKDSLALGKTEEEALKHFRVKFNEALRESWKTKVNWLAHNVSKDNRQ
T1 sequence (P27986 whole entry partner): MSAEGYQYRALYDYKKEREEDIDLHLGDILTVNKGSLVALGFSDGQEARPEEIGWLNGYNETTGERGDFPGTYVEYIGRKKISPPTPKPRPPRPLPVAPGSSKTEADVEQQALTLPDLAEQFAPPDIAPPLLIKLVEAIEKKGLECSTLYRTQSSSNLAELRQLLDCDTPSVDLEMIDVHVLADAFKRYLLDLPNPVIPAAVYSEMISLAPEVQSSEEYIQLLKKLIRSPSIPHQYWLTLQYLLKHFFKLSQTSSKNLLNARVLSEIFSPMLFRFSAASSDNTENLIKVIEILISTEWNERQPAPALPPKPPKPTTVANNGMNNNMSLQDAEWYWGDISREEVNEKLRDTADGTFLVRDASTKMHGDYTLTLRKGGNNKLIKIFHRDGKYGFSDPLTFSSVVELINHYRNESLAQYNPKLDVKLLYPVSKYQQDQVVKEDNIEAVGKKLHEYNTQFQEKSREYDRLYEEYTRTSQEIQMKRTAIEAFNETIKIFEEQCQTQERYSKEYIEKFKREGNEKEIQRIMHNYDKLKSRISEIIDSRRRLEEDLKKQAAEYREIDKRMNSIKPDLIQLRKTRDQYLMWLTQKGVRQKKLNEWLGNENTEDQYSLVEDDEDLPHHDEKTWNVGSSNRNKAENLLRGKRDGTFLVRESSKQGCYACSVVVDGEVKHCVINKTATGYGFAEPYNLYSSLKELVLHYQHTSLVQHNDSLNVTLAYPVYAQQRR
T2 sequence (P42336 whole entry): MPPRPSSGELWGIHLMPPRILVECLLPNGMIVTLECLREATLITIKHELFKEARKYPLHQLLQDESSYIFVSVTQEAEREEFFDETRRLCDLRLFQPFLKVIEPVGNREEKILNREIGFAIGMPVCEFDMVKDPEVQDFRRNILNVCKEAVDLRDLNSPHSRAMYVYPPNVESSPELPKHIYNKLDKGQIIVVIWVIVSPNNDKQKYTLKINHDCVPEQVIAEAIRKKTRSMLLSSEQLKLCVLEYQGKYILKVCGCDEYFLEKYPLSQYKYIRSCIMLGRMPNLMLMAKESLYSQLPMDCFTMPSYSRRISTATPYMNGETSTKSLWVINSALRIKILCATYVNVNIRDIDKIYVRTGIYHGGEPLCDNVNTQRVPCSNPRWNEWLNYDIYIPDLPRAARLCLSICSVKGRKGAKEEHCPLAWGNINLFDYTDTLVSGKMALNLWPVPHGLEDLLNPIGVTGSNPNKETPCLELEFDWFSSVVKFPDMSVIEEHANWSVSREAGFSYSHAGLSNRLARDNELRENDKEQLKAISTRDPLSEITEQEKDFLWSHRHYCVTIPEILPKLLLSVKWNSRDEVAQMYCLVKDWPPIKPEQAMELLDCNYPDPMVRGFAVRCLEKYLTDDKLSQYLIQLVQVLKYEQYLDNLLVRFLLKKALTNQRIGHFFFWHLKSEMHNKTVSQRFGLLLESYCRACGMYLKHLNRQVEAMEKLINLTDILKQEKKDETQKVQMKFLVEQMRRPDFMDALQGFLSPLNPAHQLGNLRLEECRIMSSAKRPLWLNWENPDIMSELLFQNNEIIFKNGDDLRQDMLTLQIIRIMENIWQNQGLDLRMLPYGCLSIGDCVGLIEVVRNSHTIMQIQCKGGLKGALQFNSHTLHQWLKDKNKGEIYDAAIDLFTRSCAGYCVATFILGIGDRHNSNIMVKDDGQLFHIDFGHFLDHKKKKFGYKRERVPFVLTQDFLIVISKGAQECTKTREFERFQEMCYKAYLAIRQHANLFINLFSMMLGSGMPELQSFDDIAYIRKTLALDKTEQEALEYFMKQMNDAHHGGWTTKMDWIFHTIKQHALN
T2 sequence (P27986 whole entry partner): as the sequence (P27986 whole entry partner) above

Take `O=C(CN1CCCC1)N[C@H]1CC[C@H](Oc2cc(-n3c(C(F)F)nc4ccccc43)nc(N3CCOCC3)n2)CC1` [Example 473]: the values for the IC50 (against human PI3Kδ enzyme; in assay [1]; at Human PI3Kα) were 30 nM, 4 nM and 9900 nM, respectively.

For `CC(N(C)[C@H]1CC[C@H](CNc2nc(N3CCOCC3)cc(-n3c(C(F)F)nc4ccccc43)n2)CC1)C(C)(C)O` (stereo partly drawn) [Example 445], the half-inhibitory concentration (IC50) amounted to 7 nM against human PI3Kδ enzyme, 0.72 nM in assay [1] and 3400 nM at Human PI3Kα.

For the compound `COCCN(CC1CC1)[C@H]1CC[C@H](CNc2nc(N3CCOCC3)cc(-n3c(C(F)F)nc4ccccc43)n2)CC1` [Example 271], the IC50 against human PI3Kδ enzyme was found to be 2.6 nM; in assay [1] it was 5.5 nM; at Human PI3Kα, 2500 nM.

For the compound `CC(N(C)[C@H]1CC[C@H](CNc2nc(N3CCOC[C@H]3C)cc(-n3c(C(F)F)nc4ccccc43)n2)CC1)C(C)(C)O` (stereo partly drawn) [Example 506], the IC50 against human PI3Kδ enzyme was determined as 4.3 nM; in assay [1], 0.75 nM; at Human PI3Kα it was 590 nM.

`CC#CCN(CC(C)(C)O)[C@H]1CC[C@H](CNc2nc(N3CCOCC3)cc(-n3c(C(F)F)nc4ccccc43)n2)CC1` [Example 437]: the IC50 was 7.1 nM on human PI3Kδ enzyme, 3.6 nM in assay [1] and 2200 nM at Human PI3Kα.

As for `FC(F)c1nc2ccccc2n1-c1cc(NC[C@H]2CC[C@H](N3CCC[C@H]3CN3CCCC3)CC2)nc(N2CCOCC2)n1` [Example 527], the concentration for half-maximal inhibition (IC50) against human PI3Kδ enzyme turned out to be 14 nM; in assay [1], 2.8 nM; at Human PI3Kα, 5700 nM.

Take `FC[C@H]1CCCN1[C@H]1CC[C@H](CNc2cc(-n3c(C(F)F)nc4ccccc43)nc(N3CCOCC3)n2)CC1` [Example 511]: the IC50 came out at 4.7 nM at human PI3Kδ enzyme, 1.2 nM in assay [1] and 2000 nM at Human PI3Kα.

Regarding `FC[C@@H]1CCN1[C@H]1CC[C@H](CNc2cc(-n3c(C(F)F)nc4ccccc43)nc(N3CCOCC3)n2)CC1` [Example 539], the IC50 against human PI3Kδ enzyme was determined as 7.6 nM; in assay [1], 0.84 nM; at Human PI3Kα, 2200 nM.

On to `CC(N(C)[C@H]1CC[C@H](CNc2nc(N3CCOC[C@@H]3C)cc(-n3c(C(F)F)nc4ccccc43)n2)CC1)C(C)(C)O` (stereo partly drawn) [Example 505], for which the IC50 against human PI3Kδ enzyme worked out at 4.1 nM; in assay [1] it was 0.46 nM; at Human PI3Kα, 450 nM.

`CCN(C(C)C(C)(C)O)[C@H]1CC[C@H](CNc2nc(N3CCOCC3)cc(-n3c(C(F)F)nc4ccccc43)n2)CC1` (stereo partly drawn) [Example 471]: the IC50 was 8.1 nM at human PI3Kδ enzyme, 1.3 nM in assay [1] and 1700 nM at Human PI3Kα.

As for `CC(C)(O)[C@@H]1CCCN1C1CCC(CNc2cc(-n3c(C(F)F)nc4ccccc43)nc(N3CCOCC3)n2)CC1` (stereo partly drawn) [Example 487], the values for the 50% inhibitory concentration (IC50) (against human PI3Kδ enzyme; in assay [1]; on Human PI3Kα) were 7.9 nM, 1.4 nM and 4400 nM, respectively.

`COCCCN(C)[C@H]1CC[C@H](CNc2nc(N3CCOCC3)cc(-n3c(C(F)F)nc4ccccc43)n2)CC1` [Example 280]: the half-maximal inhibitory concentration (IC50) against human PI3Kδ enzyme was 4.9 nM; in assay [1], 3.8 nM; at Human PI3Kα, 2500 nM.

In the case of `CC(C)=CCN(CC(C)(C)O)[C@H]1CC[C@H](CNc2nc(N3CCOCC3)cc(-n3c(C(F)F)nc4ccccc43)n2)CC1` [Example 449], the IC50 turned out to be 14 nM against human PI3Kδ enzyme, 2.2 nM in assay [1] and 1300 nM on Human PI3Kα.

With `CC(C)(O)[C@@H]1CCCN1C1CCC(COc2cc(-n3c(C(F)F)nc4ccccc43)nc(N3CCOCC3)n2)CC1` (stereo partly drawn) [Example 486], the half-inhibitory concentration (IC50) came to 9.8 nM against human PI3Kδ enzyme, 3.6 nM in assay [1] and 3600 nM on Human PI3Kα.

For the compound `C[C@H]1COCCN1c1cc(-n2c(C(F)F)nc3ccccc32)nc(NC[C@H]2CC[C@H](N(C)CC(C)(C)O)CC2)n1` [Example 393], the figures for the IC50 (against human PI3Kδ enzyme; in assay [1]; at Human PI3Kα) were 7.7 nM, 0.7 nM and 780 nM, respectively.

For `CC(C)C(O)CN(C)[C@H]1CC[C@H](CNc2nc(N3CCOCC3)cc(-n3c(C(F)F)nc4ccccc43)n2)CC1` (stereo partly drawn) [Example 398], the half-inhibitory concentration (IC50) was determined as 32 nM at human PI3Kδ enzyme, 2.3 nM in assay [1] and 3400 nM on Human PI3Kα.

Consider `CN(CC(C)(C)O)[C@H]1CC[C@H](CNc2cc(-n3c(C(F)F)nc4ccccc43)nc(N3CCOCC3)n2)CC1` [Example 495], for which the IC50 against human PI3Kδ enzyme was 14 nM; in assay [1] it was 1.7 nM; at Human PI3Kα, 6700 nM.

On to `C[C@@H]1COCCN1[C@H]1CC[C@H](CNc2cc(-n3c(C(F)F)nc4ccccc43)nc(N3CCOCC3)n2)CC1` [Example 546], for which the half-inhibitory concentration (IC50) turned out to be 50 nM against human PI3Kδ enzyme, 2.2 nM in assay [1] and 5500 nM on Human PI3Kα.

As for `CCCN(CCC)[C@H]1CC[C@H](CNc2nc(N3CCOCC3)cc(-n3c(C(F)F)nc4ccccc43)n2)CC1` [Example 450], the figures for the IC50 (on human PI3Kδ enzyme; in assay [1]; at Human PI3Kα) were 14 nM, 2.1 nM and 3500 nM, respectively.

As to `FC(F)c1nc2ccccc2n1-c1cc(N2CCOCC2)nc(NC[C@H]2CC[C@H](N3CCOCC3)CC2)n1` [Example 174], the figures for the IC50 (at human PI3Kδ enzyme; in assay [1]; on Human PI3Kα) were 5.9 nM, 2.4 nM and 2400 nM, respectively.

For `FC[C@@H]1CCCN1[C@H]1CC[C@H](CNc2cc(-n3c(C(F)F)nc4ccccc43)nc(N3CCOCC3)n2)CC1` [Example 484], the values for the concentration for half-maximal inhibition (IC50) (at human PI3Kδ enzyme; in assay [1]; at Human PI3Kα) were 1.5 nM, 2.2 nM and 2600 nM, respectively.

For the compound `CCN(CCOC)[C@H]1CC[C@H](CNc2nc(N3CCOCC3)cc(-n3c(C(F)F)nc4ccccc43)n2)CC1` [Example 363], the values for the IC50 (at human PI3Kδ enzyme; in assay [1]; on Human PI3Kα) were 18 nM, 1.4 nM and 1400 nM, respectively.

For the compound `CCN(CC)[C@H]1CC[C@H](CNc2nc(N3CCOCC3)cc(-n3c(C(F)F)nc4ccccc43)n2)CC1` [Example 424], the results for the IC50 (against human PI3Kδ enzyme; in assay [1]; on Human PI3Kα) were 6 nM, 1.7 nM and 3600 nM, respectively.

With `COCCN[C@H]1CC[C@H](CNc2cc(-n3c(C(F)F)nc4ccccc43)nc(N3CCOCC3)n2)CC1` [Example 496], the IC50 at human PI3Kδ enzyme amounted to 17 nM; in assay [1], 1.7 nM; at Human PI3Kα, 7600 nM.

For the compound `CCN(C(C)COC)[C@H]1CC[C@H](CNc2nc(N3CCOCC3)cc(-n3c(C(F)F)nc4ccccc43)n2)CC1` (stereo partly drawn) [Example 435], the IC50 was found to be 2.8 nM against human PI3Kδ enzyme, 0.58 nM in assay [1] and 950 nM at Human PI3Kα.

Regarding `FC[C@@H]1CCCN1[C@H]1CC[C@H](CNc2nc(N3CCOCC3)cc(-n3c(C(F)F)nc4ccccc43)n2)CC1` [Example 515], the IC50 was found to be 6 nM against human PI3Kδ enzyme, 4.1 nM in assay [1] and 1200 nM at Human PI3Kα.

For the compound `C#CCN(CC(C)(C)O)[C@H]1CC[C@H](CNc2nc(N3CCOCC3)cc(-n3c(C(F)F)nc4ccccc43)n2)CC1` [Example 430], the IC50 is 2.3 nM against human PI3Kδ enzyme, 1.8 nM in assay [1] and 2300 nM on Human PI3Kα.

As for `FC[C@H]1CCCN1[C@H]1CC[C@@H](CNc2cc(-n3c(C(F)F)nc4ccccc43)nc(N3CCOCC3)n2)CC1` [Example 510], the IC50 against human PI3Kδ enzyme is 36 nM; in assay [1], 18 nM; on Human PI3Kα, greater than 10000 nM.

In general, IC50 refers to the concentration that gives 50% inhibition.
